Laboratory results published in ChEMBL document CHEMBL4418495, “Entpd5 inhibitors” (2012).
Activity calls are given as the source filed them. How the calls were made is not given here.

Key:
[1] = molecular target: T1, Nucleoside diphosphate phosphatase ENTPD5 (Homo sapiens) (UniProt O75356); experiment: Inhibition of human recombinant ENTPD5 expressed in insect cells assessed as reduction in UDP hydrolysis at 1 uM incubated for 1 hr in presence of UMP, GTP and ATP by Escherichia coli UMP kinase pyrH catalyzed UMP phosphorylation coupled luciferase assay
T1 sequence (whole entry): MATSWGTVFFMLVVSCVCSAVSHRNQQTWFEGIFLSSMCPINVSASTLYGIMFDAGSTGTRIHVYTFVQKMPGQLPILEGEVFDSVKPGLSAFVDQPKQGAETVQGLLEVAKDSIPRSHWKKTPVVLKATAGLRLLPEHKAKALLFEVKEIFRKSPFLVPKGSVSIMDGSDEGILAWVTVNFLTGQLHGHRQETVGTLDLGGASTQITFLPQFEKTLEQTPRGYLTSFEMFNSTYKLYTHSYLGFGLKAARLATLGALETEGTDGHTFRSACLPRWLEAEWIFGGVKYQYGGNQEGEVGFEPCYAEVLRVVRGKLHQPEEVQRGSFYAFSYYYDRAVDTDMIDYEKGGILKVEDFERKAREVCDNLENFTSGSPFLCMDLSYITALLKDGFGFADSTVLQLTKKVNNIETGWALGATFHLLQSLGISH

[2] = molecular target: T1, Nucleoside diphosphate phosphatase ENTPD5 (Homo sapiens); experiment: Inhibition of human recombinant ENTPD5 expressed in insect cells assessed as reduction in UDP hydrolysis up to 10 uM incubated for 1 hr in presence of UMP, GTP and ATP by Escherichia coli UMP kinase pyrH catalyzed UMP phosphorylation coupled luciferase assay
[3] = molecular target: T2, Uridylate kinase (Escherichia coli (strain K12)) (UniProt P0A7E9); experiment: Inhibition of recombinant Escherichia coli UMP kinase pyrH catalyzed UMP phosphorylation in presence of GTP and ATP incubated for 1 hr by luminescence based assay
T2 sequence (whole entry): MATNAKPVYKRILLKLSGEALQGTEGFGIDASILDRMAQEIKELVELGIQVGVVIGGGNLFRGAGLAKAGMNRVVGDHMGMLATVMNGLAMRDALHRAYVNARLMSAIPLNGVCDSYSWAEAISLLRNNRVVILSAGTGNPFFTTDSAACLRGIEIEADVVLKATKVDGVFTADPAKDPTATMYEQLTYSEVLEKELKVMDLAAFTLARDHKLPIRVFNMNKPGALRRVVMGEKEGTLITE

[4] = molecular target: T1, Nucleoside diphosphate phosphatase ENTPD5 (Homo sapiens); experiment: Inhibition of human recombinant ENTPD5 expressed in insect cells assessed as reduction in reduction in UDP hydrolysis by measuring inorganic phosphate release incubated for 1 hr by malachite green based assay

| Structure (SMILES) | inhibition [1] | inhibition [2] | inhibition [3] | inhibition [4] |
| --- | --- | --- | --- | --- |
| COc1ccc(-n2cccc2/C=C2\C(=O)NC(=S)N(c3ccc(C)c(C)c3)C2=O)cc1 | Active | Dose-dependent effect | inactive | Active |
| Cc1ccc(-c2csc3nc(SCc4c(C)noc4C)n(-c4ccccc4)c(=O)c23)o1 | Active | Dose-dependent effect | inactive | Active |
| COc1ccc(OC)c(-c2cn3c(CCN(Cc4ccco4)S(=O)(=O)c4ccc5ccccc5c4)csc3n2)c1 | Active | Dose-dependent effect | inactive | Active |
| S=C(Nc1ccccc1)Nc1ccc2nc(-c3ccco3)c(-c3ccco3)nc2c1 | Active | Dose-dependent effect | inactive | Active |
| O=C(NC(=S)Nc1cc(Cl)c(O)c(Cl)c1)c1cc2ccccc2o1 | Active | Dose-dependent effect | inactive | Active |
| C=CCN1C(=O)/C(=C\c2cccn2C)C(=O)NC1=S | Active | Dose-dependent effect | inactive | Active |
| Cc1ccc(CNC(=O)c2cc(-c3ccc(Br)s3)nc3ccccc23)o1 | Active | Dose-dependent effect | inactive | Active |
| NC1=C/C(=C2\Nc3cc(N)ccc3S2)C(=O)C=C1 | Active | Dose-dependent effect | inactive | Active |
| CCCCCCCCCCCCCCCC[N+](C)(C)CCN(Cc1ccc(OC)cc1)c1ncccn1 | Active | Dose-dependent effect | inactive | Active |
| COCCNC(=O)Cn1cc(/C=C2\C(=O)NC(=O)N(C3CCCCC3)C2=O)c2ccccc21 | Active | Dose-dependent effect | inactive | Active |
| O=S(=O)(c1ccc2ccccc2c1)N(CCc1csc2nc(-c3ccc4ccccc4c3)cn12)Cc1ccco1 | Active | Dose-dependent effect | inactive | Active |
| Cc1ccc(-c2cc(C(F)(F)F)c3c(N)c(C(=O)c4ccc5c(c4)OCO5)sc3c2)s1 | Active | Dose-dependent effect | inactive | Active |
| O=C1C=C/C(=C\NNc2nc(-c3ccccc3)c(CC(=O)O)s2)C(O)=C1 | Active | Dose-dependent effect | inactive | Active |
| O=C1N=C(Nc2cccc(Cl)c2Cl)S/C1=C/c1ccc(OCc2ccc(C(=O)O)cc2)c(Br)c1 | Active | Dose-dependent effect | inactive | Active |
| N#CC1=C(N)n2c(s/c(=C\c3cc(Br)ccc3O)c2=O)=C(C#N)C1c1cc(Br)ccc1O (configuration not stated) | Active | Dose-dependent effect | inactive | Active |
| O=C(Nc1ccc2c(c1)S(=O)(=O)c1cc(NC(=O)c3cccs3)ccc1-2)c1cccs1 | Active | Dose-dependent effect | inactive | Active |
| COc1cccc(C(c2cc(C(C)(C)C)c(O)c(C(C)(C)C)c2)N2CCOCC2)c1OC (configuration not stated) | Active | Dose-dependent effect | inactive | Active |

| Structure (SMILES) | inhibition [1] | inhibition [2] | inhibition [3] | inhibition [4] |
| --- | --- | --- | --- | --- |
| S=C(NCc1ccccc1)Nc1ccc2nc(-c3ccco3)c(-c3ccco3)nc2c1 | Active | Dose-dependent effect | inactive | Active |
| O=C1NC(=S)NC(=O)C1=Cc1cn(-c2ccccc2)nc1-c1cc2c(ccc3ccccc32)oc1=O | Active | Dose-dependent effect | inactive | Active |
| Cc1ccc(-c2ccc(C=C3C(=O)NC(=O)NC3=O)o2)c(Br)c1 | Active | Dose-dependent effect | inactive | Active |
| O=C1/C(=C/c2ccc(-c3ccc(Br)cc3)o2)SC(=S)N1Cc1ccco1 | Active | Dose-dependent effect | inactive | Active |
| O=C(/C=C/c1ccco1)/C=C/c1ccc(-c2ccc(Br)cc2)o1 | Active | Dose-dependent effect | inactive | Active |
| O=C(CCl)N(CC(=O)N1c2ccccc2-n2cccc2C1c1ccc(Cl)cc1)C1CC1 (configuration not stated) | Active | Dose-dependent effect | inactive | Active |
| O=C(Cn1cc(/C=C2\C(=O)NC(=O)N(Cc3ccccc3)C2=O)c2ccccc21)NCc1ccccc1 | Active | Dose-dependent effect | inactive | Active |
| CCN(CC)c1ccc2cc(C(N)=O)/c(=N/c3cccc4ccccc34)oc2c1 | Active | Dose-dependent effect | inactive | Active |
| O=C(O)c1ccc(-c2ccc(/C=C3\SC(=S)N(c4ccc([N+](=O)[O-])cc4)C3=O)o2)cc1 | Active | Dose-dependent effect | inactive | Active |
| O=[N+]([O-])c1ccc(NCc2ccco2)c2nonc12 | Active | Dose-dependent effect | inactive | Active |
| O=C1NC(=O)N(c2ccc(Cl)cc2)C(=O)/C1=C/c1cnn(-c2ccccc2)c1 | Active | Dose-dependent effect | inactive | Active |
| O=C1NC(=O)N(c2ccc(Cl)cc2)C(=O)/C1=C/c1cccn1-c1ccccc1 | Active | Dose-dependent effect | inactive | Active |
| CC(C)(C)c1cc(CN(CCO)CCO)cc(C(C)(C)C)c1O | Active | Dose-dependent effect | inactive | Active |
| O=C1/C(=C\C=C\c2ccco2)SC(=S)N1Cc1ccccc1 | Active | Dose-dependent effect | inactive | Active |
| O=C1c2c(O)cccc2Cc2cccc(O)c21 | Active | Dose-dependent effect | inactive | Active |
| O=C(C(c1ccccc1)c1ccccc1)N(CCc1csc2nc(-c3ccc4ccccc4c3)cn12)Cc1ccco1 | Active | Dose-dependent effect | inactive | Active |
